Laboratory results: patent US20020103251A1, “Cholesterol-lowering therapy” (priority 1997, published 2002)

What was measured:
[1] = tested on: men and women with average to mildly elevated total and LDL-cholesterol, below average HDL-cholesterol and no clinical evidence of atherosclerotic …; assay: AFCAPS/TexCAPS double-blind, randomized, placebo controlled primary prevention trial of lovastatin; type: in vivo, human
Text: The following is a description of a clinical trial referred to herein as “AFCAPS/TexCAPS” or “AFCAPS” employing lovastatin to exemplify the methods of the present invention.
AFCAPS/TexCAPS was a primary prevention endpoint event trial which: (1) included unstable angina as a primary endpoint, reflecting the trend to treat coronary heart disease aggressively before a myocardial infarction has occurred; 2) involved aggressive pharmacologic intervention, with titration, to target an LDL-cholesterol goal lower than current National Cholesterol Education Panel guidelines for primary prevention; and 3) included a cohort comprised of men and women with a broad age range encompassing the elderly and included persons with a lipid profile consisting of average total and LDL-cholesterol, below average HDL-cholesterol levels; total cholesterol/HDL-cholesterol ratio greater than or equal to 4.5, with a baseline mean ratio of 6.1 for the cohort; and LDL/HDL-cholesterol ratio greater than or equal to 4.
Entrance inclusion criteria were LDL-cholesterol 130-190 mg/dl (or <130 if the ratio of total cholesterol/HDL is >6) and HDL-cholesterol ≦45 mg/dl for men and ≦47 mg/dl for women.
AFCAPS/TexCAPS was a double-blind, randomized, placebo controlled trial designed and powered to investigate whether chronic lipid-lowering, with lovastatin will decrease the rate of first acute major coronary events (e.g. sudden cardiac death, fatal and non-fatal myocardial infarction and unstable angina) compared to intervention with diet alone during at least 4.5 years of follow-up in a cohort without clinical evidence of atherosclerotic cardiovascular disease and with average to mildly elevated total cholesterol, average to midly elevated LDL-cholesterol, and below average HDL-cholesterol. Secondary objectives included whether chronic treatment with lovastatin, compared to placebo, would decrease cardiovascular morbidity and mortality across the spectrum of clinical events, by measuring the rates of: (1) fatal and non-fatal coronary revascularization procedures (2) unstable angina, (3) fatal and non-fatal myocardial infarction, (4) fatal and non-fatal cardiovascular events, (5) fatal and non-fatal coronary events.
All participants underwent dietitian taught group instruction in the American Heart Association Step 1 diet commencing at least 12 weeks prior to randomization (Week -12) and reinforced at Weeks-4 and -2. Baseline observations included collection of medical history, health habit and demographic data, physical exam, eye exam (San Antonio clinic only), chest X-ray, mammogram (women), electrocardiogram and analysis of lipids/lipoproteins, hematology, blood chemistry and urine. A 2-week placebo baseline run-in was followed by randomization of eligible compliant participants to treatment with lovastatin or placebo.
Participants included 6605 men and women with normal to mildly elevated total and LDL-cholesterol and below average HDL-cholesterol defined as: total cholesterol 180-264 mg/dl, LDL-cholesterol 130-190 mg/dl, HDL-cholesterol ≦45 mg/dl for men and ≦47 mg/dl for women and triglycerides ≦400 mg/dl. All lipid/lipoprotein entrance criteria had to be met on average at both four and two weeks prior to randomization (after at least eight weeks of diet therapy). In addition, for both total and LDL-cholesterol, the two eligibility determinations had to be within 15% of each other.
Excluded for clinical evidence of atherosclerotic cardiovascular disease were men and women who had: prior history of myocardial infarction; angina; claudication; cerebrovascular accident; or transient ischemic attack. Also excluded were those aged >73 years or <45 years (men) or <55 years (women) or those with secondary hyperlipoproteinemia, nephrotic syndrome, uncontrolled or insulin-dependent diabetes mellitus or uncontrolled hypertension.

[2] = tested on: patients with hypercholesterolemia and/or CHD; conditions: coronary and carotid arteries; cited from earlier work
[3] = Secondary Endpoint: Fatal and Nonfatal Coronary Events, lovastatin vs placebo
[4] = first acute major coronary events, baseline HDL-C tertile 34.5-39.5 mg/dl
[5] = first acute major coronary events, baseline HDL-C tertile <34.0 mg/dl
[6] = first acute major coronary events, baseline HDL-C tertile >39.5 mg/dl
[7] = first acute major coronary events, baseline LDL-C tertile 142.0-156.8 mg/dl
[8] = first acute major coronary events, baseline LDL-C tertile <142 mg/dl
[9] = first acute major coronary events, baseline LDL-C tertile >156.9 mg/dl

CC[C@H](C)C(=O)O[C@H]1C[C@@H](C)C=C2C=C[C@H](C)[C@H](CC[C@@H]3C[C@@H](O)CC(=O)O3)[C@H]21 [lovastatin]
Relative Risk (C.I.) ([1]; Primary Endpoint: acute major coronary events, lovastatin 20-40 mg once a day vs placebo, median 5.2 years): 0.63 (0.50, 0.79),
Relative Risk (C.I.) ([1]; Secondary Endpoint: Fatal and Nonfatal Cardiovascular Events, lovastatin vs placebo): 0.75 (0.62, 0.91),
Relative Risk (C.I.) [1, 3]: 0.75 (0.61, 0.92),
Risk Reduction [1, 3]: 25%
Relative Risk (C.I.) ([1]; Secondary Endpoint: Fatal and Nonfatal MI, lovastatin vs placebo): 0.60 (0.43, 0.83),
Relative Risk (C.I.) ([1]; Secondary Endpoint: Revascularizations, lovastatin vs placebo): 0.67 (0.52, 0.85),
Relative Risk (C.I.) ([1]; Secondary Endpoint: Unstable Angina, lovastatin vs placebo): 0.68 (0.48, 0.95),
% change in HDL-C from baseline to the one year point ([1]; baseline HDL-C tertile 34.5-39.5 mg/dl): 6.2%
% change in HDL-C from baseline to the one year point ([1]; baseline HDL-C tertile <34.0 mg/dl): 7.4%
% change in HDL-C from baseline to the one year point ([1]; baseline HDL-C tertile >39.5 mg/dl): 4.3%
% change in LDL-C from baseline to the one year point ([1]; baseline LDL-C tertile 142.0-156.8 mg/dl): −26.0%
% change in LDL-C from baseline to the one year point ([1]; baseline LDL-C tertile <142 mg/dl): −20.1%
% change in LDL-C from baseline to the one year point ([1]; baseline LDL-C tertile >156.9 mg/dl): −28.9%
dependence of risk reduction on baseline LDL-C and HDL-C ([1]; first acute major coronary events by LDL-C and HDL-C tertiles at randomization): independent of baseline LDL-C and HDL-C
Relative Risk (95% C.I.) [1, 4]: 0.57
Risk Reduction [1, 4]: 43%
Relative Risk (95% C.I.) [1, 5]: 0.55
Risk Reduction [1, 5]: 45%
Relative Risk (95% C.I.) [1, 6]: 0.85
Risk Reduction [1, 6]: 15%
Relative Risk (95% C.I.) [1, 7]: 0.64
Risk Reduction [1, 7]: 36%
Relative Risk (95% C.I.) [1, 8]: 0.66
Risk Reduction [1, 8]: 34%
Relative Risk (95% C.I.) [1, 9]: 0.59
Risk Reduction [1, 9]: 41%
progression of atherosclerotic lesions [2]: slow the progression of atherosclerotic lesions
